Test results: ChEMBL document CHEMBL1201862, “PubChem BioAssay data set” (2004)
The source made the active and inactive calls.

Experiments:
Cytochrome P450 3A4 [1] = molecular target: T1, Cytochrome P450 3A4 (Homo sapiens, UniProt P08684);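 also: CYP3A4 tested as one member of a cytochrome P450 panel screen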
[2] = viability loss of HMLE_sh_eGFP cells – cell-based, luminescence, counter-screen for HMLE_sh_ECad selective toxicity project, dose response (AID 463074); format: functional, Homo sapiens;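 also: HMLE human mammary epithelial cells expressing control shRNA against eGFP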
Cytochrome P450 2D6 = Cytochrome P450 2D6 (Homo sapiens, UniProt P10635);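 also: CYP2D6 member of a cytochrome P450 panel assay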
[3] = Luminescence Cell-Based Dose Retest to Confirm Inhibitors of Cancer Stem Cells. [Related pubchem assays (depositor defined):AID2717, AID2721]; format: functional; details: Homo sapiens
Bcl-2-related protein A1 = molecular target: T2, Bcl-2-related protein A1 (Mus musculus, UniProt Q07440); format: functional;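 also: confirmatory dose–response counterscreen on Bfl-1, used to check hits from a UBC13 polyubiquitin inhibitor campaign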
T2 sequence (Q07440 whole entry): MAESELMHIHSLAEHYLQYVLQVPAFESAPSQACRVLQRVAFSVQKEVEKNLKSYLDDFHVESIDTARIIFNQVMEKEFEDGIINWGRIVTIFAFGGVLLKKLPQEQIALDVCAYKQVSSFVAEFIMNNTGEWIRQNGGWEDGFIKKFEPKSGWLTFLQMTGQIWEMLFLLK

[4] = molecular target: Peroxisome proliferator-activated receptor gamma/Nuclear receptor coactivator 1 (Homo sapiens, UniProt P37231); assay: TR-FRET dose response biochemical High Throughput Screening assay for agonists of the steroid receptor coactivator 1 (SRC-1) recruitment by the peroxisome proliferator-activated receptor gamma (PPAR gamma): non-selective agonists. [Related pubchem assays (depositor defined):AID1300, AID1808, AID504735, AID631]; format: protein assay
[5] = molecular target: Peroxisome proliferator-activated receptor gamma/Nuclear receptor coactivator 2 (Homo sapiens, UniProt P37231); assay: (§1) TR-FRET dose response biochemical High Throughput Screening assay for agonists of the steroid receptor coactivator 2 (SRC-2) recruitment by the peroxisome proliferator-activated receptor gamma (PPAR gamma): non-selective agonists. [Related pubchem assays: 1297, 1032 ]; format: functional
[6] = molecular target: T3, Ubiquitin-conjugating enzyme E2 N (Homo sapiens, UniProt P61088); format: functional
T3 sequence (P61088 whole entry): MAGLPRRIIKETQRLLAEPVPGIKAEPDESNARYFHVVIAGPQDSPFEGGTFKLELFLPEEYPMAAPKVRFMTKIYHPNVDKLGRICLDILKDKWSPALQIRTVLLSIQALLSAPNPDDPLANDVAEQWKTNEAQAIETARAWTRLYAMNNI

[7] = molecular target: T3, Ubiquitin-conjugating enzyme E2 N; format: functional; remark: listed apart in the source
[8] = molecular target: Peroxisome proliferator-activated receptor gamma/Nuclear receptor coactivator 3 (Homo sapiens, UniProt P37231); assay: as §1, with “3 (SRC-3)” for “2 (SRC-2)”, “1301 (Confirmation screen.), 1048 (Primary screen.)]” for “1297, 1032 ]”; format: functional
Cytochrome P450 3A4 [9] = molecular target: T1, Cytochrome P450 3A4; remark: listed apart in the source
Protein Wnt-3a = Protein Wnt-3a (Mus musculus, UniProt P27467); assay: antagonism of Wnt3a pathway luciferase reporter – Wnt-LIGHT cells, luminescence, selectivity assay for Gli-SUFU antagonist project, dose response (AID 651570); format: functional; details: read-out: IC50_Mean;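 also: Wnt-LIGHT reporter cells stimulated with conditioned medium from Wnt3a-producing cells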
[10] = NIH3T3 cell viability loss – ATP luminescence, mouse fibroblasts, counter-screen, dose response (AID 2010); format: functional, cell-based;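 also: cells exposed to compound for about 90 hours before reading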
[11] = Trypanosoma cruzi growth suppression in host cells – NIH3T3 host cells, beta-gal luminescence, confirmation (AID 2044); format: functional, cell-based;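 also: intracellular parasites grown in NIH/3T3 mouse fibroblasts as host cells; luminescent beta-galactosidase reporter signal from transgenic T. cruzi replicating inside host cells; inhibitors lower the luminescence signal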
[12] = molecular target: T4, Mannose-6-phosphate isomerase (Homo sapiens, UniProt P34949); assay: MPI enzyme activity inhibition – biochemical, fluorescence intensity, coupled assay, primary screen (AID 1209)
T4 sequence (P34949 whole entry): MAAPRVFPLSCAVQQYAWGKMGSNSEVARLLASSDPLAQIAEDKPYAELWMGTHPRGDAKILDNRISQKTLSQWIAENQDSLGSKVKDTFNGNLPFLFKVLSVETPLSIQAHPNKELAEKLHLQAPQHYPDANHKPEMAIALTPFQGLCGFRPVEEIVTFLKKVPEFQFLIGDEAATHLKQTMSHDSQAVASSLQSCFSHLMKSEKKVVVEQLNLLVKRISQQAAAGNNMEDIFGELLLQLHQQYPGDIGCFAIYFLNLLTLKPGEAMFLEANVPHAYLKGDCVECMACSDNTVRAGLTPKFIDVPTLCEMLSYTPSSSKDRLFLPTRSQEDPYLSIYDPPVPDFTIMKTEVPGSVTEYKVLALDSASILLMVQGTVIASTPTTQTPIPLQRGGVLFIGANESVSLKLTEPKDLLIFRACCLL

INS1 = assay: INS-1E survival protection against cytokine death – cell-based, luminescence, retest, dose response (AID 449756); format: functional; details: Rattus norvegicus;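 also: cell death triggered by IL-1 beta plus TNF-alpha plus IFN-gamma mixture; protective hits raise ATP signal compared with cytokine alone wells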
HeLa = assay: ATP-based viability loss in HeLa cells – cell-based, CellTiter-Glo luminescence, cherry-pick samples, cytotoxicity control for MITF activator project, dose response (AID 540259); format: functional; details: Homo sapiens
Cytochrome P450 2C9 = Cytochrome P450 2C9 (Homo sapiens, UniProt P11712)
[13] = molecular target: T5, Rac GTPase-activating protein 1 (Homo sapiens, UniProt Q9H0H5); assay: blockers of MgcRacGAP-driven Rac1 GTP hydrolysis – biochemical, ADP Hunter fluorescence, primary and confirmatory, confirmation (AID 624330); format: functional
T5 sequence (Q9H0H5 whole entry): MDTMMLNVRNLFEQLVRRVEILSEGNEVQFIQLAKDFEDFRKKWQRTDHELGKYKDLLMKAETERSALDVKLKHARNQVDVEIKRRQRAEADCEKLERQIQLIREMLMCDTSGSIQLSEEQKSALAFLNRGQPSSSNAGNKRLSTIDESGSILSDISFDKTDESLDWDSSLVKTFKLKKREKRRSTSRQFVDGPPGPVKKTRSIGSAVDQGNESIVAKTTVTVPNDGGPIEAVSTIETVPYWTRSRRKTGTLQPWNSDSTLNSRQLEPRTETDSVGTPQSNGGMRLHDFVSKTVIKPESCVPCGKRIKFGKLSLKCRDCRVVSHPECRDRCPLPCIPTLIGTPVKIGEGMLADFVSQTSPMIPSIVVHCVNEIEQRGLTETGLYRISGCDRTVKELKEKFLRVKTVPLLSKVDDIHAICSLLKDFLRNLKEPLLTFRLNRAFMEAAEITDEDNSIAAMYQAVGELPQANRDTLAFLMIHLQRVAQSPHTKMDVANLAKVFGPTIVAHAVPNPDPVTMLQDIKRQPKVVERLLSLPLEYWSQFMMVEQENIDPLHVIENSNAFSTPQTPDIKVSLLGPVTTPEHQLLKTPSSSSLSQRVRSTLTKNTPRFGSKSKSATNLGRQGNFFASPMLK

Escherichia coli = assay: microbe, parasite or virus in culture

T1 sequence (P08684 whole entry): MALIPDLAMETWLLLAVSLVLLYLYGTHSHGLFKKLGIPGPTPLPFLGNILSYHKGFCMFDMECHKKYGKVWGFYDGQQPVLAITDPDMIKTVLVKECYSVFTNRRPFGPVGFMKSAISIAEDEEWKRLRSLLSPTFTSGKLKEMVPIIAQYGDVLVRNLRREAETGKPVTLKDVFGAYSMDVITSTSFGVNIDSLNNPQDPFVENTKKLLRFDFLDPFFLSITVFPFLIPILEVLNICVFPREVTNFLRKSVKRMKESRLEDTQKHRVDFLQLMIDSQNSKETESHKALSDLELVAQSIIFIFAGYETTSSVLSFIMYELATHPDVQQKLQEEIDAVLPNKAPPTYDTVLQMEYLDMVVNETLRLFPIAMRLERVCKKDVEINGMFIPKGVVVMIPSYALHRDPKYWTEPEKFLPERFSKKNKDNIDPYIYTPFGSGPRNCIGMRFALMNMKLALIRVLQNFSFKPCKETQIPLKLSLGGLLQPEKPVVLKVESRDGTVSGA
Sequence of Cytochrome P450 2C9 (P11712 whole entry): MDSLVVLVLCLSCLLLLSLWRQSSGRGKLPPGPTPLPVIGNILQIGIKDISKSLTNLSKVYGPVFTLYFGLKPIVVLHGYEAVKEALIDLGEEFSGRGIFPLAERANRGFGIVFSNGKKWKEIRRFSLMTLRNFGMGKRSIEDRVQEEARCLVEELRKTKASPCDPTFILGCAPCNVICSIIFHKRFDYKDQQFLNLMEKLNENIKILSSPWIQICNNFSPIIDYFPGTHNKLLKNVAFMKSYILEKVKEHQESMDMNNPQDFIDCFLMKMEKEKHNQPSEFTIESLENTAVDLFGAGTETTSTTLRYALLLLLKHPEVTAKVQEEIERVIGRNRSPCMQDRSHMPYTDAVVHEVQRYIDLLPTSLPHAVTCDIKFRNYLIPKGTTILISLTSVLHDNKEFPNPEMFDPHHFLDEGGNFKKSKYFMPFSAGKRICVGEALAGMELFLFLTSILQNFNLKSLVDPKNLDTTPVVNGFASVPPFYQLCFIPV
Sequence of Cytochrome P450 2D6 (P10635 whole entry): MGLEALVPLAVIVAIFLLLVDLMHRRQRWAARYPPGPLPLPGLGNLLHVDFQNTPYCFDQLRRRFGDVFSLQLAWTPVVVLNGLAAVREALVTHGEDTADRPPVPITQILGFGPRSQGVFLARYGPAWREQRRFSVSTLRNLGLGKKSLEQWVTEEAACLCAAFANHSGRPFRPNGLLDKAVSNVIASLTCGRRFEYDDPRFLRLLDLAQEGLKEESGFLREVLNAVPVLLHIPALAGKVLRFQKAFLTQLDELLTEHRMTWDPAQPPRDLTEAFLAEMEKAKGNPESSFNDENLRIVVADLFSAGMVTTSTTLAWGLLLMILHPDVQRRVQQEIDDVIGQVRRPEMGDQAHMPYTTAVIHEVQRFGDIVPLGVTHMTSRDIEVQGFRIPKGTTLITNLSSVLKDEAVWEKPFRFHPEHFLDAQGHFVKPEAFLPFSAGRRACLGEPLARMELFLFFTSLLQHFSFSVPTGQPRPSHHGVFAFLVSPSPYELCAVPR
Sequence of Protein Wnt-3a (P27467 whole entry): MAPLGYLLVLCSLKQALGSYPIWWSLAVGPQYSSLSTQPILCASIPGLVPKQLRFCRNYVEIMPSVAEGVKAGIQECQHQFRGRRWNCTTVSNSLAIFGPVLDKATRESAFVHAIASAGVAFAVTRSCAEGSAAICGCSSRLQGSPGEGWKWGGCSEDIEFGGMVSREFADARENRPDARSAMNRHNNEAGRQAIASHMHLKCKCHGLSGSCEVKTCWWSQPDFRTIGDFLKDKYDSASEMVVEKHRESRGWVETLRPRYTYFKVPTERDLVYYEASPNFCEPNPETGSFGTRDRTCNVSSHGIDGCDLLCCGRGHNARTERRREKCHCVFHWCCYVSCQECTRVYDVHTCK
Sequence of Peroxisome proliferator-activated receptor gamma/Nuclear receptor coactivator 2 (P37231 whole entry): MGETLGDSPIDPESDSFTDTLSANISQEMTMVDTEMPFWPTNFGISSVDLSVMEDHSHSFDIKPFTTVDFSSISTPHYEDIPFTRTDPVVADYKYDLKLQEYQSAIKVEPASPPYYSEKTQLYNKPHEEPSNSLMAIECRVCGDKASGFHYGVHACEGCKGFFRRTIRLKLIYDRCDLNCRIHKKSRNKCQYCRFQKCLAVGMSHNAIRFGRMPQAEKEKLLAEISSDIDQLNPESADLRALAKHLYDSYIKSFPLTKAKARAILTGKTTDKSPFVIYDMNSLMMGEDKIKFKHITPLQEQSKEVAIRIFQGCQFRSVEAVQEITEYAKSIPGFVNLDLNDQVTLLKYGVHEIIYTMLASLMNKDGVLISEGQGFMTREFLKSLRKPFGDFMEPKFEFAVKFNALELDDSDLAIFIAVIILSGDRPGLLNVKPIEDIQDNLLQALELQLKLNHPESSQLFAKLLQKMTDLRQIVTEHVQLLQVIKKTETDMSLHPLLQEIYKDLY
Sequence of Peroxisome proliferator-activated receptor gamma/Nuclear receptor coactivator 2 (Q15596 whole entry, further chain): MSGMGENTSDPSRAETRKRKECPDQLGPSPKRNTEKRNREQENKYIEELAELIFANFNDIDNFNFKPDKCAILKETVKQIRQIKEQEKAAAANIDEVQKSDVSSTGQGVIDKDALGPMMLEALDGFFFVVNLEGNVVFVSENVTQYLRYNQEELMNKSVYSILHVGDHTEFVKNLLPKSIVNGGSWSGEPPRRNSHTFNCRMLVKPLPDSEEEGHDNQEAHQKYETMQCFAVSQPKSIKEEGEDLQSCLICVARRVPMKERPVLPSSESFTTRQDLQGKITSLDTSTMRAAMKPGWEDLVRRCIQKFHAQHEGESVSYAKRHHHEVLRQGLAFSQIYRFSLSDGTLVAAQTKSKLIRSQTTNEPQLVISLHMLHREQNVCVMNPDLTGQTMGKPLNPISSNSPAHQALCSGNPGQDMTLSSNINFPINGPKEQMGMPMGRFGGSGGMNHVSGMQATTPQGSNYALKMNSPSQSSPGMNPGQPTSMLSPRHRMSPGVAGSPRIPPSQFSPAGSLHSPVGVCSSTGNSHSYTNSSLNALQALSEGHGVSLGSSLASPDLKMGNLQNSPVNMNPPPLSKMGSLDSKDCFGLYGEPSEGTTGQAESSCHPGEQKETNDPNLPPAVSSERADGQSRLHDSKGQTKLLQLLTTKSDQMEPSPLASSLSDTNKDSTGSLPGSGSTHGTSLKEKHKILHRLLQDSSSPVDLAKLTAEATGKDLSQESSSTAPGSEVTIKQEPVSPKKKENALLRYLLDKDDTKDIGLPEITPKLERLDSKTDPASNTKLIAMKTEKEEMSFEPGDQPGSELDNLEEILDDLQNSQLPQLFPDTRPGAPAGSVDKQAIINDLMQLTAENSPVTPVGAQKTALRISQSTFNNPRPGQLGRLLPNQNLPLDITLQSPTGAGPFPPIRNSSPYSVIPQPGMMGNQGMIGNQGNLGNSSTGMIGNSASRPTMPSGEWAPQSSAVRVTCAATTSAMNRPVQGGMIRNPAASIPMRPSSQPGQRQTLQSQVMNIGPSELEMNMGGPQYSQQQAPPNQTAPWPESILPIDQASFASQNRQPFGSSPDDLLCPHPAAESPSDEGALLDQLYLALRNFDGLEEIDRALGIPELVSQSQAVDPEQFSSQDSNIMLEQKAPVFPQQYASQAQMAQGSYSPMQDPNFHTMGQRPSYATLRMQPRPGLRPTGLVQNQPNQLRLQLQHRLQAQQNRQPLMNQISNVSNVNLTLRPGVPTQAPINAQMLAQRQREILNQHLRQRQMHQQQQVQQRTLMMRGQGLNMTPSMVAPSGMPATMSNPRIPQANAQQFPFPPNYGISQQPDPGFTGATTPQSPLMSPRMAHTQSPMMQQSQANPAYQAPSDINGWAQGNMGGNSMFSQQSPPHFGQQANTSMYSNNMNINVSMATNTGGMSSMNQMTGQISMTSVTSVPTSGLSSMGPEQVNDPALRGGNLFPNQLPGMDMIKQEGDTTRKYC

## CCCCCOc1ccc(OC(=O)c2ccncc2)cc1
Cytochrome P450 3A4 [1]
  AC50: 25.1 µM (inconclusive)
[2]
  AC50: 21.2 µM (active)
Cytochrome P450 2D6
  AC50: 3.98 µM (inconclusive)
[3]
  AC50: 7.57 µM (active)

## CCn1c(=O)cc(SCC(=O)NCCCN2CCN(c3ccc(F)cc3)CC2)c2ccccc21
Bcl-2-related protein A1
  IC50: > 20 µM (inactive)
[4]
  EC50: > 79.4 µM (inactive)
[5]
  EC50: > 79.4 µM (not active)
[6]
  IC50: 4.95 µM (active)
[7]
  IC50: 5.57 µM (active)
[8]
  EC50: > 79.4 µM (not active)

## Cn1cccc1C(=O)N1CCC2(CC1)CCN(c1ncccn1)CC2
Cytochrome P450 3A4 [9]
  AC50: inconclusive

## Cn1c(=O)c(-c2ccc(F)cc2)nc2cnc(N3CCOCC3)nc21
Cytochrome P450 3A4 [9]
  AC50: inconclusive

## CC[N+]1=C(C)C(C)(C)c2cc(C)ccc21
Protein Wnt-3a
  IC50: 0.892 µM (active)
[10]
  EC50: > 60 µM (not active)
[2]
  AC50: 64.4 µM (active)
[11]
  EC50: 1.49 µM (active)
[12]
  IC50: > 50 µM (not active)
[3]
  AC50: 24 µM (active)
INS1
  AC50: 5.84 µM (active)

## NC(=O)CC(NC(=O)Cc1cccc2ccccc12)c1ccc(NC2CCCCC2)c([N+](=O)[O-])c1 (configuration not stated)
[2]
  AC50: 27.9 µM (active)
[3]
  AC50: 5.79 µM (active)

## Cc1ccc(C(=O)NCCc2ccc(F)cc2)s1
HeLa
  AC50: 43.2 µM (active)

## COC(=O)c1cc(C(=O)c2cccc(Cl)c2Cl)cn1C
Cytochrome P450 3A4 [9]
  AC50: inconclusive
Cytochrome P450 2C9
  AC50: inconclusive

## C(=N\Nc1ccccn1)/c1ccc(N2CCOCC2)cc1
[13]
  IC50: 134 µM (active)
Escherichia coli
  AC50: 62 µM (active)

## CCc1ccc(O)c(-c2cc(C(=O)Nc3cccnc3)[nH]n2)c1
HeLa
  AC50: > 350 µM (inactive)
